Measurements taken from patent US20260234164A1, “BIPHENYL COMPOUND AS IMMUNOMODULATOR, PREPARATION METHOD THEREFOR AND USE THEREOF” (SHENZHEN CHIPSCREEN BIOSCIENCES CO., LTD., priority 2021, published 2026).

Legend:
PD-1/PD-L1 binding = biological target: T1, PD-1/PD-L1 binding (Homo sapiens, UniProt Q9NZQ7); assay: HTRF inhibition of PD-1/PD-L1 binding in vitro; conditions: His-PD-1 100 nM, PD-L1-Fc 2 nM, read-out: IC50 inhibiting PD-1/PD-L1 binding in vitro
T1 construct: purchased Sino Biological Inc. 10084-H02H-100 (PD-L1-Fc); 10377-H08H-50 (His-PD-1)
Excerpt: Homogeneous Time-Resolved Fluorescence (HTRF): This method used the recombinant human PD-L1 protein fused to express the hFc tag and the recombinant human PD-1 protein fused to express the His tag, both of which were interacting ligands and receptors. When the anti-hFc antibody containing Eu element chelation marker and the anti-His antibody labeled with XL665 fluorescein were bound with the above two corresponding labels, and excited by a laser with a wavelength of 320 nm, the ligand-receptor binding enabled the energy to be transferred from the Eu element to the XL665 fluorescein, which was excited to emit light at a wavelength of 665 nm. However, when an inhibitor of the interaction between PD-L1 and PD-1 was added, the binding of the ligand to the receptor was destroyed, so that the distance between Eu and XL665 was far away, the energy cannot be transferred, and XL665 would not be excited.
(§1) Recombinant human PD-1 protein with His tag (His-PD-1 protein, Cat #: 10377-H08H-50), and recombinant human PD-L1-Fc fusion protein (PD-L1-Fc fusion protein, Cat #: 10084-H02H-100) were purchased from Sino Biological Inc., anti-hFc-Eu^+ antibody and anti-His-XL665 antibody were purchased from Cisbio Company, and other related reagents such as dilution buffer (Diluent buffer 5, Cat #: 62DL5DDC), detection buffer (PPI-Europium detection buffer, Cat #: 61DB9RDF) were purchased from Cisbio Company. Fluorescence detection instrument Tecan (Spark 10 M) was purchased from Switzerland Tecan Company.
(§2) (1) Experimental preparation: The test compound was diluted with dilution buffer into different concentration gradients (the highest final concentration in 20 μL final reaction system was 10 μM), His-PD-1 protein was diluted to 800 nM (the final concentration in 20 μL final reaction system was 100 nM), and the PD-L1-Fc fusion protein was diluted to 16 nM (final concentration was 2 nM). The anti-His-XL665 antibody and anti-hFc-Eu^3+ antibody were respectively diluted 20 times and 100 times using the detection buffer according to the reagent requirements.
(§3) (2) 5 μL of test compound, 2.5 μL of PD-L1-Fc fusion protein and 2.5 μL of His-PD-1 protein solution were mixed, and incubated at room temperature for 15 min. Then the system was added with 5 μL of anti-His-XL665 antibody and 5 μL of anti-hFc-Eu^3+ antibody, incubated for another 3 h, and then detected.
(3) When detecting the reaction, a control group was also provided, including a 0% inhibition positive control without adding test compounds and a 100% inhibition negative control without adding PD-1 protein. All detections were performed with duplicates.
(§4) (4) The fluorescence signal of each well was measured using a fluorescence detector Tecan (Spark 10M) at an excitation wavelength of 320 nm, and emission wavelengths of 620 nm and 665 nm, respectively. The intensity of the mutual binding of PD-1 and PD-L1 referred to the ratio of fluorescence signals Em665/Em620.
(§5) (5) The binding inhibition rate of the test compound was calculated as follows: Inhibition rate (%)=[1−(Fluorescence signal ratio of detection well-fluorescence signal ratio of 100% inhibition negative control)]/(fluorescence signal ratio of 0% inhibition positive control-fluorescence signal ratio of 100% inhibition negative control)×100%. After calculating the inhibition rate on PD-1/PD-L1 binding of the test compounds with different concentration gradients, the 50% inhibitory concentration (IC50) was calculated.

CD80/PD-L1 binding = biological target: T2, CD80/PD-L1 binding (Homo sapiens, UniProt Q9NZQ7); assay: HTRF inhibition of CD80/PD-L1 binding in vitro; conditions: His-CD80 100 nM, PD-L1-Fc 2 nM, read-out: IC50 inhibiting CD80/PD-L1 binding in vitro
T2 construct: purchased Sino Biological Inc. 10084-H02H-100 (PD-L1-Fc); 10698-H08H-100 (His-CD80)
Excerpt: In addition to PD-1, PD-L1 can also exert immunosuppressive activity by binding to CD80. Similarly, in vitro experiments of binding or binding inhibition of CD80 and PD-L1 can also be measured by homogeneous time-resolved fluorescence (HTRF). When the anti-hFc-Eu^3+ antibody and anti-His-XL665 antibody were bound to the hFC tag fused to PD-L1 and the His tag fused to CD80 respectively, and excited with a 320 nm wavelength laser, the binding of PD-L1 and CD80 enabled energy to be transferred from the Eu element to the XL665 fluorescein, which was excited to emit light. When the inhibitor of the interaction between PD-L1 and CD80 was added, the combination of the two was destroyed, so that the distance between Eu and XL665 was far away, the energy cannot be transferred, and XL665 would not be excited.
as §1, with “CD80” for “PD-1”, “(His-CD80” for “(His-PD-1”, “10698-H08H-100),” for “10377-H08H-50),”, “anti-hFc-Eu^3+” for “anti-hFc-Eu^+”
as §2, with “His-CD80” for “His-PD-1”
as §3, with “Hid-CD80” for “PD-L1-Fc fusion”, “[…]” for “His-PD-1”
(3) When detecting the reaction, a control group was provided, including a 0% inhibition positive control without adding test compounds and a 100% inhibition negative control without adding CD-80 protein. All detections were performed with duplicates.
as §4, with “CD80” for “PD-1”
as §5, with “CD80/PD-L1” for “PD-1/PD-L1”

T1 sequence (Q9NZQ7 19-239 limits assumed): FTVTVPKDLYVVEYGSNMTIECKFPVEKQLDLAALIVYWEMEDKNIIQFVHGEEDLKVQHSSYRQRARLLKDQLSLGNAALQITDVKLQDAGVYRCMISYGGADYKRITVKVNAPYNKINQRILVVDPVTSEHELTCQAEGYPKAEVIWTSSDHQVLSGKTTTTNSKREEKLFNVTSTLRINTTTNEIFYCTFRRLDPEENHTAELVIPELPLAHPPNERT
T2 sequence (Q9NZQ7 19-239 limits assumed): as above

[2H]c1c([2H])c(NC(=O)c2nc3c(n2C([2H])([2H])[2H])CCN(CCC24CCC(COC([2H])([2H])[2H])(CC2)C4)C3)c(Cl)c(-c2c([2H])c([2H])c([2H])c(NC(=O)c3nc4c(n3C([2H])([2H])[2H])CCN(CCC35CCC(C(=O)O)(CC3)C5)C4)c2Cl)c1[2H] [Compound I-13, 4-(2-(2-((2,2′-dichloro-3′-(5-(2-(4-((methoxy-d3)methyl)bicyclo[2.2.1]heptane-1-yl)ethyl)-1-(methyl-d3)-4,5,6,7-tetrahydro-1H-imidazo[4,5-c]pyridine-2-carboxamido)-[1,1′-biphenyl]-3-yl-4,4′, 5,5′,6,6′-d6)carbamoyl)-1-(methyl-d3)-1,4,6,7-tetrahydro-5H-imidazo[4,5-c]pyridin-5-yl)ethyl)bicyclo[2.2.1]heptane-1-carboxylic acid] gave an IC50 (PD-1/PD-L1 binding) of 1.23 nM and an IC50 (CD80/PD-L1 binding) of 1.44 nM.
